Measurements from patent US7790896B2, “RNA-selective probes for live cell imaging of nuclear structure and function” (New York University, priority 2006, dated 2010).

Legend:
[1] = Fluorescent properties of free dye solution; type: physicochemical; details: for EM (emission λmax), Buffer / EX (excitation λmax), Buffer: TE buffer pH 7.5, dye 5 μM; for ε free (extinction coefficient) / ΦF free (quantum yield): TE buffer pH 7.5, dye 5 μM for E36, 10 μM for E144 and F22; for ΦF free (quantum yield): Rhodamine 6G standard
Procedure: (§1) The fluorescence spectra data in the primary screening and selected dyes titration assay study was obtained by Gemini XS plate reader. RNA solution was prepared right before the assay experiments to avoid possible degradation and contamination. In the primary screening, 1 mg/mL RNA (type VI from torula yeast) buffer solution was used. Point scans were carried out first using five Ex/Em point sets ([…], 400/500, 450/550, 500/600, 550/650 nm). Spectra scans were then carried out for the selected dyes. Excitation wavelengths were set at 350 nm, 400 nm, 450 nm, 500 nm, and 550 nm and the emission wavelengths were scanned. RNA (16S- and 23S-ribosomal from E. coli) and DNA (salmon testes) titration experiments and quantum yield/extinction coefficient determination for the three best dyes were carried out by the plate reader as well. Excitation λmax obtained from F-2500 Hitachi Fluorophotometer was used. Absorbance wavelength was determined by SpectraMax Plus^384 absorbance plate reader. […] was chosen as standard and 480 nm was used as excitation wavelength in the scanning for quantum yield determination. […] Generally, the λmax (nm) of emission was determined by scanning a fixed excitation first, and the μmax (nm) of excitation was determined by scanning emission spectrum with a fixed μem (nm). The detailed fluorescent properties of three selected dyes including; excitation/emission μmax, the quantum yield and extinction coefficient of both free dye solution and dye-RNA solution were assessed (Table 5).

[2] = tested on: RNA (16S- and 23S-ribosomal from E. coli); assay: Fluorescent properties of dye-RNA solution; type: binding; details: for EM (emission λmax), RNA / EX (excitation λmax), RNA: TE buffer pH 7.5, dye 5 μM; for EM (emission λmax), RNA / EX (excitation λmax), RNA / ΦF RNA (quantum yield) / ε RNA (extinction coefficient): RNA 200 μg/mL; for ΦF RNA (quantum yield) / ε RNA (extinction coefficient): TE buffer pH 7.5, dye 5 μM for E36, 10 μM for E144 and F22; for ΦF RNA/ΦF free: ratio of quantum yields with RNA 200 μg/mL and free
Procedure: as §1

[3] = tested on: RNA, 16S- and 23S-ribosomal from E. coli; assay: Dye concentration dependency titration with RNA; type: binding; details: dye 0.15 μM to 10 μM, RNA 50 μg/mL
Procedure: Samples containing 50 μg/mL RNA in TE buffer with an increasing concentration of compound from 0.15 μM to 10 μM. Shown here is the intensity increase recorded at the emission λmax wavelength of each dye. […] The samples contain fixed concentration of dyes (E36: 5 μM; E144: 10 μM; F22: 10 μM) in TE buffer with an increasing concentration of RNA or DNA from 0.19 μg/mL to 200 μg/mL. Data points were in duplicated in individual experiments, and error bars represent standard deviation.
The fluorescence spectra data in the primary screening and selected dyes titration assay study was obtained by Gemini XS plate reader. RNA solution was prepared right before the assay experiments to avoid possible degradation and contamination. In the primary screening, 1 mg/mL RNA (type VI from torula yeast) buffer solution was used. Point scans were carried out first using five Ex/Em point sets ([…], 400/500, 450/550, 500/600, 550/650 nm). Spectra scans were then carried out for the selected dyes. Excitation wavelengths were set at 350 nm, 400 nm, 450 nm, 500 nm, and 550 nm and the emission wavelengths were scanned. RNA (16S- and 23S-ribosomal from E. coli) and DNA (salmon testes) titration experiments and quantum yield/extinction coefficient determination for the three best dyes were carried out by the plate reader as well. Excitation λmax obtained from F-2500 Hitachi Fluorophotometer was used. Absorbance wavelength was determined by SpectraMax Plus^384 absorbance plate reader. […] was chosen as standard and 480 nm was used as excitation wavelength in the scanning for quantum yield determination.
The RNA binding characteristics of these dyes was further examined by determining if the fluorescent intensity was concentration dependent (FIG. 3A). […] Moreover, a slight emission Ma red shift was observed (total 8 nm) with the increasing concentration of E36.

[4] = tested on: Fixed-permeabilized Hela cells; assay: DNase and RNase digest test; type: cell-based, human; details: dye 50 μM, 2 hours; for Fluorescence after RNase digest: 25 μg/mL DNase-Free RNase; for Fluorescence after DNase digest: 30 μg/mL DNase
Procedure: Cells were first fixed using cold (−4° C.) pure methanol for 1 minute at ambient temperature. The cell membrane was then permeabilized by immersion in 1% Triton X-100 for 2 minutes. After rinsing with PBS twice, 100 μL of 50 μM dye PBS solution was added to three adjacent wells. Cells were then incubated in this dye PBS solution for 15 minutes in ambient temperature before being rinsed with clean PBS twice. 100 μL clean PBS (as control experiment), 30 μg/mL DNase (Sigma), or 25 μg/mL DNase-Free RNase (GE) was added to the three adjacent wells and incubated at 37° C. in 5% CO2 for 2 hours. Cells were rinsed with clean PBS twice before imaging. For each dye test, the fluorescent images were obtained using equal exposure time for control, DNase and RNase experiments. DAPI (10 μM) in PBS and SYTO®RNASelect (5 μM) in PBS solution were used for dual staining experiments. Duplicate experiments have been tested.
To further confirm that the compounds selectively bind RNA, a deoxyribonuclease (DNase) and ribonuclease (RNase) digest test was performed. In DNase digest, only the DNAs in the cell would be hydrolyzed. By contrast, in RNase digest, only RNAs would be hydrolyzed. Fixed-permeabilized Hela cells were used in this experiment and DAPI and SYTO®RNASelect were used as control dyes (FIG. 6). […] Still, its higher RNA-selective binding in live cell might be due to the complicated in vivo live cell environment, which may preferably direct this dye to nucleoli.

Compound: C[n+]1c(/C=C/c2c[nH]c3ccccc23)ccc2ccccc21 [Dye E36]
- EM (emission λmax), Buffer [1]: 541 nm
- EX (excitation λmax), Buffer [1]: 457 nm
- ε free (extinction coefficient) [1]: 39400 M⁻¹ cm⁻¹
- ΦF free (quantum yield) [1]: 0.0019
- EM (emission λmax), RNA [2]: 548 nm
- EX (excitation λmax), RNA [2]: 497 nm
- ΦF RNA (quantum yield) [2]: 0.1041
- ε RNA (extinction coefficient) [2]: 43100 M⁻¹ cm⁻¹
- ΦF RNA/ΦF free [2]: 54.6
- Emission λmax red shift with increasing dye concentration [3]: 8 nm
- Fluorescent intensity vs dye concentration (titration curve) [3]: evidence of saturation at high concentration
- Fluorescence after RNase digest [4]: dramatically diminished
- Fluorescence after DNase digest [4]: stayed almost the same

Compound: COc1cc(OC)c(/C=C/c2ccc3ccccc3[n+]2C)c(OC)c1 [Dye E144]
- EM (emission λmax), Buffer [1]: 532 nm
- EX (excitation λmax), Buffer [1]: 440 nm
- ε free (extinction coefficient) [1]: 13200 M⁻¹ cm⁻¹
- ΦF free (quantum yield) [1]: 0.0056
- EM (emission λmax), RNA [2]: 532 nm
- EX (excitation λmax), RNA [2]: 456 nm
- ΦF RNA (quantum yield) [2]: 0.0310
- ε RNA (extinction coefficient) [2]: 14600 M⁻¹ cm⁻¹
- ΦF RNA/ΦF free [2]: 5.5
- Emission λmax red shift with increasing dye concentration [3]: did not show obvious wavelength shift
- Fluorescent intensity vs dye concentration (titration curve) [3]: almost linear curve
- Fluorescence after RNase digest [4]: not detectable
- Fluorescence after DNase digest [4]: not detectable

Compound: COc1ccc2c(ccc(/C=C/c3ccc(N(C)C)cc3)[n+]2C)c1 [Dye F22]
- EM (emission λmax), Buffer [1]: 598 nm
- EX (excitation λmax), Buffer [1]: 492 nm
- ε free (extinction coefficient) [1]: 17400 M⁻¹ cm⁻¹
- ΦF free (quantum yield) [1]: 0.0007
- EM (emission λmax), RNA [2]: 620 nm
- EX (excitation λmax), RNA [2]: 548 nm
- ΦF RNA (quantum yield) [2]: 0.0075
- ε RNA (extinction coefficient) [2]: 20000 M⁻¹ cm⁻¹
- ΦF RNA/ΦF free [2]: 10.7
- Emission λmax red shift with increasing dye concentration [3]: did not show obvious wavelength shift
- Fluorescent intensity vs dye concentration (titration curve) [3]: evidence of saturation at high concentration
- Fluorescence after RNase digest [4]: overall decrease in intensity
- Fluorescence after DNase digest [4]: nucleolar stain remained bright
